Experimental data reported in publication PMC8762706, “Design of Coibamide A Mimetics with Improved Cellular Bioactivity” (ACS Medicinal Chemistry Letters, 2021).
Like-named read-outs stand apart in the source and are kept apart here. Where a SMILES comes first, the peptide text is derived from it. Bridges are numbered along the chain shown (N, C = ends). [ ]: non-standard residue; d: D form. The star is where a group is joined. Phe(4-NO2) = N[C@@H](Cc1ccc([N+](=O)[O-])cc1)C(=O)O; Phe(4-N3) = [N-]=[N+]=Nc1ccc(C[C@H](N)C(=O)O)cc1; Bip = N[C@@H](Cc1ccc(-c2ccccc2)cc1)C(=O)O; dNMeaIle = CC[C@H](C)[C@@H](NC)C(=O)O; NMe2Val = CC(C)[C@@H](C(=O)*)N(C)C; NMeLys(Me) = CNCCCC[C@H](NC)C(=O)O; NMeI = CC[C@H](C)[C@H](NC)C(=O)O; NMeT = CN[C@H](C(=O)O)[C@@H](C)O; Lys(Me) = CNCCCC[C@H](N)C(=O)O; NMeL = CN[C@@H](CC(C)C)C(=O)O; dNMeK = CN[C@H](CCCCN)C(=O)O; dHiv = CC(C)[C@@H](O)C(=O)O; NMeS = CN[C@@H](CO)C(=O)O; NMeA = CN[C@@H](C)C(=O)O; dNMeA = CN[C@H](C)C(=O)O

Test system: A549 cells
Assay: Growth inhibition assay (MTS) in A549 cells
Assay type: cell-based
Procedure: Growth Inhibition AssayS3
A549 cells were cultured in Dulbecco’s modified Eagle’s medium (DMEM; Sigma) supplemented with 10% (v/v) fetal bovine serum at 37 °C in a 5% CO2-incubator. Growth inhibition assays using A549 cells were performed in 96-well plates (BD Falcon). A549 cells were seeded at 1000 cells/well in 90 μL of culture media, respectively, and were cultured for 24 h. Chemical compounds in DMSO were diluted 50-fold with the culture medium in advance. 30 μL of the chemical diluents were added.
The final volume of DMSO in the medium was equal to 0.5% (v/v). The cells under chemical treatment were incubated for a further 72 h. The wells in the plates were washed twice with the cultured medium without phenol-red. After 1-hour incubation with 100 μL of the medium, the cell culture in each well was supplemented with 20 μL of the MTS reagent (Promega), followed by incubation for additional 40 min. Absorbance at 490 nm of each well was measured using a Wallac 1420 ARVO SX multilabel counter (Perkin Elmer). Three experiments were performed per condition and the averages of inhibition rates in each condition were evaluated to determine IC50 values using the GraphPad Prism software.

[1] = read-out: IC50 (concentration for 50% growth inhibition of A549 cells), MTS assay, 72 h treatment, 0.5% DMSO, absorbance 490 nm, n = 3
[2] = read-out: IC50 (concentration for 50% growth inhibition of A549 cells), MTS assay, 72 h treatment, n = 3

With `CC[C@H](C)[C@@H]1C(=O)N[C@@H](C)C(=O)N(C)[C@@H](CC(C)C)C(=O)N[C@@H](Cc2ccc(OC)cc2)C(=O)N(C)CCCC[C@H](N(C)C(=O)[C@H](CC(C)C)N(C)C(=O)[C@H](C)N(C)C(=O)[C@H](OC(=O)[C@H](C(C)C)N(C)C)C(C)C)C(=O)N(C)[C@@H](C)C(=O)N1C` [9b] (NMe2Val-[dHiv][NMeA][NMeL][NMeLys(Me)][NMeA][dNMeaIle]A[NMeL]Y(Me); lactam 4-C) the IC50 [1] was over 10000 nM.

In the case of `CC[C@H](C)[C@H]1C(=O)N[C@@H](C)C(=O)N(C)[C@@H](CC(C)C)C(=O)N[C@@H](Cc2ccc([N+](=O)[O-])cc2)C(=O)N(C)CCCC[C@H](N(C)C(=O)[C@H](CC(C)C)N(C)C(=O)[C@H](C)N(C)C(=O)[C@H](OC(=O)[C@H](C(C)C)N(C)C)C(C)C)C(=O)N(C)[C@@H](C)C(=O)N1C` [10b] (NMe2Val-[dHiv][NMeA][NMeL][NMeLys(Me)][NMeA][NMeI]A[NMeL][Phe(4-NO2)]; lactam 4-C), the IC50 [1] is reported as 1100 ± 200 nM.

For `CC[C@H](C)[C@H]1C(=O)N[C@@H](C)C(=O)N(C)[C@@H](CC(C)C)C(=O)N[C@@H](Cc2ccc(OC)cc2)C(=O)N(C)CCCC[C@H](N(C)C(=O)[C@H](CC(C)C)N(C)C(=O)[C@H](C)N(C)C(=O)[C@H](OC(=O)[C@H](C(C)C)N(C)C)C(C)C)C(=O)N(C)[C@@H](C)C(=O)N1C` [2a, [MeAla^3, MeLys(Me)^5, MeAla^6]-CbA] (NMe2Val-[dHiv][NMeA][NMeL][NMeLys(Me)][NMeA][NMeI]A[NMeL]Y(Me); lactam 4-C), the “times less active than the natural product 1” value (ratio of IC50 values to 1) was “approximately 300 times”.

Compound `CC[C@H](C)[C@H]1C(=O)N[C@@H](C)C(=O)N(C)[C@@H](CC(C)C)C(=O)N[C@@H](Cc2ccc(OC)cc2)C(=O)N(C)CCCC[C@H](NC(=O)[C@H](CC(C)C)N(C)C(=O)[C@H](C)N(C)C(=O)[C@H](OC(=O)[C@H](C(C)C)N(C)C)C(C)C)C(=O)N(C)[C@@H](C)C(=O)N1C` [8c] (NMe2Val-[dHiv][NMeA][NMeL][Lys(Me)][NMeA][NMeI]A[NMeL]Y(Me); lactam 4-C) has an IC50 [1] of 6400 ± 1700 nM.

Compound `CC[C@H](C)[C@H]1C(=O)N[C@@H](C)C(=O)N(C)[C@@H](CC(C)C)C(=O)N[C@@H](Cc2ccc(N=[N+]=[N-])cc2)C(=O)N(C)CCCC[C@H](N(C)C(=O)[C@H](CC(C)C)N(C)C(=O)[C@H](C)N(C)C(=O)[C@H](OC(=O)[C@H](C(C)C)N(C)C)C(C)C)C(=O)N(C)[C@@H](C)C(=O)N1C` [10e] (NMe2Val-[dHiv][NMeA][NMeL][NMeLys(Me)][NMeA][NMeI]A[NMeL][Phe(4-N3)]; lactam 4-C) has an IC50 [1] of 380 ± 50 nM.

For `CC[C@H](C)[C@H]1C(=O)N[C@@H](C)C(=O)N(C)[C@@H](CC(C)C)C(=O)N[C@@H](Cc2ccc(-c3ccccc3)cc2)C(=O)N(C)[C@H](C)C(=O)O[C@H](C)[C@H](N(C)C(=O)[C@H](CC(C)C)N(C)C(=O)[C@H](C)N(C)C(=O)[C@H](OC(=O)[C@H](C(C)C)N(C)C)C(C)C)C(=O)N(C)[C@@H](C)C(=O)N1C` [compound 12, [MeAla^3, MeAla^6, Bph^10]-CbA] (NMe2Val-[dHiv][NMeA][NMeL][NMeT][NMeA][NMeI]A[NMeL][Bip][dNMeA]; ester 4-C), the “fold more potent cytotoxicity than 1 (coibamide A)” value (ratio of IC50 values to 1) was 5.6 fold and the IC50 [2] was 0.25 nM.

With `CC[C@H](C)[C@H]1C(=O)N[C@@H](C)C(=O)N(C)[C@@H](CC(C)C)C(=O)N[C@@H](Cc2ccc(OC)cc2)C(=O)N(C)[C@H](C)C(=O)O[C@H](C)[C@H](N(C)C(=O)[C@H](CC(C)C)N(C)C(=O)[C@H](COC)N(C)C(=O)[C@H](OC(=O)[C@H](C(C)C)N(C)C)C(C)C)C(=O)N(C)[C@@H](COC)C(=O)N1C` [coibamide A] (NMe2Val-[dHiv][NMeS](Me)[NMeL][NMeT][NMeS](Me)[NMeI]A[NMeL]Y(Me)[dNMeA]; ester 4-C) the IC50 [2] was 1.4 ± 0.4 nM.

`CC[C@H](C)[C@H]1C(=O)N[C@@H](C)C(=O)N(C)[C@@H](CC(C)C)C(=O)N[C@@H](Cc2ccc(OC)cc2)C(=O)NCCCC[C@@H](N(C)C(=O)[C@H](CC(C)C)N(C)C(=O)[C@H](C)N(C)C(=O)[C@H](OC(=O)[C@H](C(C)C)N(C)C)C(C)C)C(=O)N(C)[C@@H](C)C(=O)N1C` [2f] (NMe2Val-[dHiv][NMeA][NMeL][dNMeK][NMeA][NMeI]A[NMeL]Y(Me); lactam 4-C) showed an IC50 [1] of over 10000 nM.

For `CC[C@H](C)[C@H]1C(=O)N[C@@H](C)C(=O)N(C)[C@@H](CC(C)C)C(=O)N[C@@H](Cc2ccc(-c3ccccc3)cc2)C(=O)N(C)[C@H](C)C(=O)O[C@H](C)[C@H](N(C)C(=O)[C@H](CC(C)C)N(C)C(=O)[C@H](COC)N(C)C(=O)[C@H](OC(=O)[C@H](C(C)C)N(C)C)C(C)C)C(=O)N(C)[C@@H](COC)C(=O)N1C` [compound 11, [Bph^10]-CbA] (NMe2Val-[dHiv][NMeS](Me)[NMeL][NMeT][NMeS](Me)[NMeI]A[NMeL][Bip][dNMeA]; ester 4-C), the “fold more potent cytotoxicity than 1 (coibamide A)” value (ratio of IC50 values to 1) was 12 fold.

`CC[C@H](C)[C@H]1C(=O)N[C@@H](C)C(=O)N(C)[C@@H](CC(C)C)C(=O)N[C@@H](Cc2ccc(OC)cc2)C(=O)N(C)CCCC[C@H](N(C)C(=O)[C@H](CC(C)C)N(C)C(=O)[C@H](C)NC(=O)[C@H](OC(=O)[C@H](C(C)C)N(C)C)C(C)C)C(=O)N(C)[C@@H](C)C(=O)N1C` [8a] (NMe2Val-[dHiv]A[NMeL][NMeLys(Me)][NMeA][NMeI]A[NMeL]Y(Me); lactam 4-C) showed an IC50 [1] of 2200 ± 600 nM.
